Tested on: lymphatic endothelial cells (LEC monoculture / LEC-LMC coculture in lymphangion-chip)
Assay: Lymphatic endothelial barrier function (permeability) of the lymphangion-chip after exposure to TNF-α
Assay type: cell-based
Conditions: LMCs cocultured with LECs (graph 400, FIG. 22)

With Tumor Necrosis Factor Alpha (TNF-α) the “lymphatic endothelial barrier function” value was “relatively conserved”.
